Test results reported in the NIST ThermoML archive (doi:10.1016/j.tca.2017.12.010).
Numbers after ± are expanded uncertainties. Values belong to the molecule of their own block, whether it stands above or below them.

How the values were obtained:
[1] = Liquid, DSC
[2] = Boiling temperature at pressure P; details: Liquid, DSC

- vapor or sublimation pressure ([1]; 353.82 K): 101.3 ± 7.9 kPa
SMILES: C1CCCCC1 [cyclohexane]

- vapor or sublimation pressure ([1]; 337.78 K): 101.3 ± 7.9 kPa
SMILES: CO [methanol]

- vapor or sublimation pressure ([1]; 355.71 K): 101.3 ± 7.9 kPa
SMILES: CC(C)O [propan-2-ol]

SMILES: Cc1ccccc1 [toluene]
- vapor or sublimation pressure ([1]; 383.6 K): 101.3 ± 7.9 kPa

- Boiling temperature at pressure P ([2]; 92.9 kPa): 97.82 ± 1.6 °C
- Boiling temperature at pressure P ([2]; 93 kPa): 97.84 ± 1.6 °C
- Boiling temperature at pressure P ([2]; 93.5 kPa): 97.94 ± 1.6 °C
- Boiling temperature at pressure P ([2]; 94.1 kPa): 98.06 ± 1.6 °C
- Boiling temperature at pressure P ([2]; 101.3 kPa): 100.01 ± 1.6 °C
- Boiling temperature at pressure P ([2]; 395 kPa): 143.21 ± 1.6 °C
- Boiling temperature at pressure P ([2]; 585 kPa): 157.83 ± 1.6 °C
- Boiling temperature at pressure P ([2]; 592 kPa): 158.51 ± 1.6 °C
- Boiling temperature at pressure P ([2]; 791 kPa): 169.38 ± 1.6 °C
- Boiling temperature at pressure P ([2]; 1091 kPa): 183.29 ± 1.6 °C
- Boiling temperature at pressure P ([2]; 1392 kPa): 194.26 ± 1.6 °C
- Boiling temperature at pressure P ([2]; 1689 kPa): 203.20 ± 1.6 °C
- Boiling temperature at pressure P ([2]; 2088 kPa): 213.26 ± 1.6 °C
SMILES: O [water]
